Measurements from patent publication US7632829B2, “Diazepan derivatives” (Hoffmann-La Roche Inc., priority 2006, dated 2009).

Target: T1, human chemokine receptor 2 isoform B (Homo sapiens, UniProt P41597)
T1 construct: host or cells: CHOK1-CCR2B-A5 (CHO-K1)
T1 sequence (P41597 1-360 isoform P41597-2): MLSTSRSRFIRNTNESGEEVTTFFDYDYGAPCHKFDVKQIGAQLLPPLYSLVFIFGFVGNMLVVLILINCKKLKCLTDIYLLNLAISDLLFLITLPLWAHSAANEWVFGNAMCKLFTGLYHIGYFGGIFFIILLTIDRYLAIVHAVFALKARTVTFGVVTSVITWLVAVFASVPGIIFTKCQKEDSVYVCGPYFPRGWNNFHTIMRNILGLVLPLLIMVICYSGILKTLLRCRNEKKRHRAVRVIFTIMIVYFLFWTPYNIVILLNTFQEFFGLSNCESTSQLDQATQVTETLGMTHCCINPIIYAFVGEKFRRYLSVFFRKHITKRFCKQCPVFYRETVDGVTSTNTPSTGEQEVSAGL
Experiment: Calcium mobilization assay (FLIPR, CHOK1-CCR2B-A5 cells, 20 nM MCP-1)
Assay type: cell-based
Details: Ca mobilisation assay, CCR2, antagonist activity vs 20 nM MCP-1
Summary of the method: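 FLIPR Fluo-4 calcium readout in CHO-K1 cells stably overexpressing human CCR2B; compounds first monitored 80 s for agonist activity, then after 20-30 min at 30 °C challenged with 20 nM MCP-1. Response is max minus basal fluorescence; antagonist value is concentration giving 50% inhibition of specific calcium increase.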

Structure (SMILES) | IC50
O=C(/C=C/c1ccc(Cl)c(Cl)c1)N1CCC(=O)N(CCCN2CCC(O)(c3ccccn3)CC2)CC1 [Example 69, 1-[(E)-3-(3,4-Dichloro-phenyl)-acryloyl]-4-[3-(4′-hydroxy-3′,4′,5′,6′-tetrahydro-2′H-[2,4′]bipyridinyl-1′-yl)-propyl]-[1,4]diazepan-5-one] | 185 nM
O=C(/C=C/c1ccc(Cl)c(Cl)c1)N1CCC(=O)N(CCCN2CCC(F)CC2)CC1 [Example 74, 1-[(E)-3-(3,4-Dichloro-phenyl)-acryloyl]-4-[3-(4-fluoro-piperidin-1-yl)-propyl]-[1,4]diazepan-5-one] | 175 nM
CN(CCCN1CCN(C(=O)/C=C/c2ccc(Cl)c(Cl)c2)CCC1=O)C1CCOCC1 [Example 78, 1-[(E)-3-(3,4-Dichloro-phenyl)-acryloyl]-4-{3-[methyl-(tetrahydro-pyran-4-yl)-amino]-propyl}-[1,4]diazepan-5-one] | 444 nM
COC1CCN(CCCN2CCN(C(=O)/C=C/c3ccc(Cl)c(Cl)c3)CCC2=O)CC1 [Example 79, 1-[(E)-3-(3,4-Dichloro-phenyl)-acryloyl]-4-[3-(4-methoxy-piperidin-1-yl)-propyl]-[1,4]diazepan-5-one] | 706 nM
O=C1NCC2(CCN(CCCN3CCN(C(=O)/C=C/c4ccc(Cl)c(Cl)c4)CCC3=O)CC2)O1 [Example 84, 8-(3-{4-[(E)-3-(3,4-Dichloro-phenyl)-acryloyl]-7-oxo-[1,4]diazepan-1-yl}-propyl)-1-oxa-3,8-diaza-spiro[4.5]decan-2-one] | 223 nM
O=C(/C=C/c1ccc(Cl)c(Cl)c1)N1CCC(=O)N(CCCN2CCC(O)(c3ncco3)CC2)CC1 [Example 85, 1-[(E)-3-(3,4-Dichloro-phenyl)-acryloyl]-4-[3-(4-hydroxy-4-oxazol-2-yl-piperidin-1-yl)-propyl]-[1,4]diazepan-5-one] | 1170 nM
CNC(=O)C1CCN(CCCN2CCN(C(=O)/C=C/c3ccc(Cl)c(Cl)c3)CCC2=O)CC1 [Example 86, 1-(3-{4-[(E)-3-(3,4-Dichloro-phenyl)-acryloyl]-7-oxo-[1,4]diazepan-1-yl}-propyl)-piperidine-4-carboxylic acid methylamide] | 1080 nM
O=C1CC2(CCN(CCCN3CCN(C(=O)/C=C/c4ccc(Cl)c(Cl)c4)CCC3=O)CC2)CN1 [Example 88, 8-(3-{4-[(E)-3-(3,4-Dichloro-phenyl)-acryloyl]-7-oxo-[1,4]diazepan-1-yl}-propyl)-2,8-diaza-spiro[4.5]decan-3-one] | 757 nM
O=C(/C=C/c1ccc(Cl)c(Cl)c1)N1CCC(=O)N(CCCN2CCC[C@H](O)C2)CC1 [Example 92, (S)-1-[(E)-3-(3,4-Dichloro-phenyl)-acryloyl]-4-[3-(3-hydroxy-piperidin-1-yl)-propyl]-[1,4]diazepan-5-one] | 189 nM
O=C(/C=C/c1ccc(Cl)c(Cl)c1)N1CCC(=O)N(CCN2CCC(O)(c3ccccc3)CC2)CC1 [Example 96, 1-[(E)-3-(3,4-Dichloro-phenyl)-acryloyl]-4-[3-(4-hydroxy-4-phenyl-piperidin-1-yl)-ethyl]-[1,4]diazepan-5-one] | 1140 nM
N#CC1(c2ccccc2)CCN(CCN2CCN(C(=O)/C=C/c3ccc(Cl)c(Cl)c3)CCC2=O)CC1 [Example 101, 1-(-3-{4-[(E)-3-(3,4-Dichloro-phenyl)-acryloyl]-7-oxo-[1,4]diazepan-1-yl}-ethyl)-4-phenyl-piperidine-4-carbonitrile] | 1230 nM
CN(CCN1CCN(C(=O)/C=C/c2ccc(Cl)c(Cl)c2)CCC1=O)C1CCCC1 [Example 109, 4-[-3-(Cyclopentyl-methyl-amino)-ethyl]-1-[(E)-3-(3,4-dichloro-phenyl)-acryloyl]-[1,4]diazepan-5-one] | 521 nM
CN(CCN1CCN(C(=O)/C=C/c2ccc(Cl)c(Cl)c2)CCC1=O)C1CCOCC1 [Example 134, 1-[(E)-3-(3,4-Dichloro-phenyl)-acryloyl]-4-{3-[methyl-(tetrahydro-pyran-4-yl)-amino]-ethyl}-[1,4]diazepan-5-one] | 600 nM
C[N+]1(CCCN2CCN(C(=O)/C=C/c3ccc(Cl)c(Cl)c3)CCC2=O)CCC2(CC1)NC(=O)NC2=O (stereo not shown) [Example 153, 8-(3-{4-[(E)-3-(3,4-Dichloro-phenyl)-acryloyl]-7-oxo-[1,4]diazepan-1-yl}-propyl)-8-methyl-2,4-dioxo-1,3-diaza-8-azonia-spiro[4.5]decane iodide] | 446 nM

Now from value to molecule:

IC50 | Structure (SMILES)
146 nM | O=C(/C=C/c1ccc(Cl)c(Cl)c1)N1CCC(=O)N(CCCN2CCC(O)(c3cccnc3)CC2)CC1 [Example 70, 1-[(E)-3-(3,4-Dichloro-phenyl)-acryloyl]-4-[3-(4′-hydroxy-3′,4′,5′,6′-tetrahydro-2′H-[3,4′]bipyridinyl-1′-yl)-propyl]-[1,4]diazepan-5-one]
312 nM | O=C(/C=C/c1ccc(Cl)c(Cl)c1)N1CCC(=O)N(CCCN2CCC(C(F)(F)F)CC2)CC1 [Example 72, 1-[(E)-3-(3,4-Dichloro-phenyl)-acryloyl]-4-[3-(4-trifluoromethyl-piperidin-1-yl)-propyl]-[1,4]diazepan-5-one]
297 nM | CCOC(=O)NC1CCN(CCCN2CCN(C(=O)/C=C/c3ccc(Cl)c(Cl)c3)CCC2=O)CC1 [Example 82, [1-(3-{4-[(E)-3-(3,4-Dichloro-phenyl)-acryloyl]-7-oxo-[1,4]diazepan-1-yl}-propyl)-piperidin-4-yl]-carbamic acid ethyl ester]
315 nM | O=C1CC2(CCN(CCCN3CCN(C(=O)/C=C/c4ccc(Cl)c(Cl)c4)CCC3=O)CC2)C(=O)N1 [Example 87, 8-(3-{4-[(E)-3-(3,4-Dichloro-phenyl)-acryloyl]-7-oxo-[1,4]diazepan-1-yl}-propyl)-2,8-diaza-spiro[4.5]decane-1,3-dione]
148 nM | O=C(/C=C/c1ccc(Cl)c(Cl)c1)N1CCC(=O)N(CCCN2CCC[C@@H](O)C2)CC1 [Example 91, (R)-1-[(E)-3-(3,4-Dichloro-phenyl)-acryloyl]-4-[3-(3-hydroxy-piperidin-1-yl)-propyl]-[1,4]diazepan-5-one]
1220 nM | O=C(/C=C/c1ccc(Cl)c(Cl)c1)N1CCC(=O)N(CCN2CCC(O)(c3cccnc3)CC2)CC1 [Example 99, 1-[(E)-3-(3,4-Dichloro-phenyl)-acryloyl]-4-[3-(4′-hydroxy-3′,4′,5′,6′-tetrahydro-2′H-[3,4′]bipyridinyl-1′-yl)-ethyl]-[1,4]diazepan-5-one]
388 nM | O=C(/C=C/c1ccc(Cl)c(Cl)c1)N1CCC(=O)N(CCNC2CCOCC2)CC1 [Example 103, 1-[(E)-3-(3,4-Dichloro-phenyl)-acryloyl]-4-[3-(tetrahydro-pyran-4-ylamino)-ethyl]-[1,4]diazepan-5-one]
806 nM | O=C(C=Cc1ccc(Cl)c(Cl)c1)N1CCC(=O)N(CCNC2CCC(O)(c3ccccn3)CC2)CC1 (stereo not drawn) [Example 105, trans-1-[(E)-3-(3,4-Dichloro-phenyl)-acryloyl]-4-[3-(4-hydroxy-4-pyridin-2-yl-cyclohexylamino)-ethyl]-[1,4]diazepan-5-one]
523 nM | O=C(/C=C/c1ccc(Cl)c(Cl)c1)N1CCC(=O)N(CCN[C@H]2CC[C@H](O)CC2)CC1 [Example 106, trans-1-[(E)-3-(3,4-Dichloro-phenyl)-acryloyl]-4-[2-(4-hydroxy-cyclohexylamino)-ethyl]-[1,4]diazepan-5-one]
1200 nM | O=C(/C=C/c1ccc(Cl)c(Cl)c1)N1CCC(=O)N(CCNC2CCCC2)CC1 [Example 108, 4-[3-(Cyclopentyl-amino)-ethyl]-1-[(E)-3-(3,4-dichloro-phenyl)-acryloyl]-[1,4]diazepan-5-one]
459 nM | O=C(/C=C/c1ccc(Cl)c(Cl)c1)N1CCC(=O)N(CCN2CCC[C@H]2CO)CC1 [Example 117, (S)-1-[(E)-3-(3,4-Dichloro-phenyl)-acryloyl]-4-[3-(2-hydroxymethyl-pyrrolidin-1-yl)-ethyl]-[1,4]diazepan-5-one]
1140 nM | CC1CCN(CCN2CCN(C(=O)/C=C/c3ccc(Cl)c(Cl)c3)CCC2=O)CC1 [Example 120, 1-[(E)-3-(3,4-Dichloro-phenyl)-acryloyl]-4-[3-(4-methyl-piperidin-1-yl)-ethyl]-[1,4]diazepan-5-one]
688 nM | CC(C)N1CCC(NCCN2CCN(C(=O)/C=C/c3ccc(Cl)c(Cl)c3)CCC2=O)CC1 [Example 136, 1-[(E)-3-(3,4-Dichloro-phenyl)-acryloyl]-4-[2-(1-isopropyl-piperidin-4-ylamino)-ethyl]-[1,4]diazepan-5-one]
373 nM | C[N+]1(CCCN2CCN(C(=O)C=Cc3ccc(Cl)c(Cl)c3)CCC2=O)CCCCC1 [Example 154, 1-(3-{4-[3-(3,4-Dichloro-phenyl)-acryloyl]-7-oxo-[1,4]diazepan-1-yl}-propyl)-1-methyl-piperidinium iodide]
370 nM | O=C(/C=C/c1ccc(Cl)c(Cl)c1)N1CCC(=O)N(CCCCN2CCOCC2)CC1 [Example 155, 1-[(E)-3-(3,4-Dichloro-phenyl)-acryloyl]-4-(4-morpholin-4-yl-butyl)-[1,4]diazepan-5-one]
703 nM | O=C(/C=C/c1ccc2ccccc2c1)N1CCC(=O)N(CCCN2CCCCC2)CC1 [Example 157, 1-((E)-3-Naphthalen-2-yl-acryloyl)-4-(3-piperidin-1-yl-propyl)-[1,4]diazepan-5-one]
258 nM | O=C(/C=C/c1ccc(Cl)c(Cl)c1)N1CCC(=O)N(CCCN2CCC(O)CC2)CC1 [Example 159, 1-[(E)-3-(3,4-Dichloro-phenyl)-acryloyl]-4-[3-(4-hydroxy-piperidin-1-yl)-propyl]-[1,4]diazepan-5-one]
